SMILES strings stand for the structures. Numbered stars: 1 amine (or outer) side, 2 acyl side, 3 side chain; on linkers, the order of the positions; unused ones are H or OH. Bridge positions count the residues as written; N and C are the ends. Square brackets hold non-standard residues; d marks the D form. Peptide text beside a SMILES is read from it. N(2-hydroxyethyl)Ala = C[C@H](NCCO)C(=O)O; X3 = CCCC[C@@H](C(=O)[*:2])N(CCO)[*:1]; X2 = C[C@@H](C(=O)[*:2])N(CCN)[*:1]; X1 = O=C(CN(CCC(F)(F)F)[*:1])[*:2]; NBnAla = C[C@H](NCc1ccccc1)C(=O)O; Hyp = O=C(O)[C@@H]1C[C@@H](O)CN1; NMeNle = CCCC[C@H](NC)C(=O)O; NMeA = CN[C@@H](C)C(=O)O; Dab = NCC[C@H](N)C(=O)O

In general, IC50 refers to the midpoint of a concentration-inhibition curve. Read a high IC50 as lower potency.

The target in one assay is T1, PD-1-Ig binding to PD-L1-TVMV-His (PD-L1-His) (Homo sapiens, UniProt Q9NZQ7).
T1 construct: hPDL1(19-239)-TVMV-His; made in house; host or cells: HEK293T
T1 sequence (Q9NZQ7 with tags, fused parts or gaps): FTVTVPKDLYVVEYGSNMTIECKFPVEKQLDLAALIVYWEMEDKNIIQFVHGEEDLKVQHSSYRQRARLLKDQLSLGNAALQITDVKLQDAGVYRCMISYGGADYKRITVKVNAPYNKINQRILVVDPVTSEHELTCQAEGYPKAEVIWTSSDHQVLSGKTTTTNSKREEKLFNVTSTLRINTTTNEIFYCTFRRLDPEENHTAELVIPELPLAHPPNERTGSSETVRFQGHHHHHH
In words: PD-1/PD-L1 Homogenous Time-Resolved Fluorescence (HTRF) binding assay. As to conditions: numeric value; PD-L1-His 10 nM, PD-1-Ig 20 nM. The text has this:
Methods for Testing the Ability of Macrocyclic Peptides to Compete for the Binding of Pd-1 to Pd-L1 Using Homogenous Time-Resolved Fluorescence (HTRF) Binding Assays
The ability of the macrocyclic peptides of the present disclosure to bind to PD-L1 was investigated using a PD-1/PD-L1 Homogenous Time-Resolved Fluorescence (HTRF) binding assay.
Homogenous Time-Resolved Fluorescence (HTRF) Assays of Binding of Soluble PD-1 to Soluble PD-L1. Soluble PD-1 and soluble PD-L1 refers to proteins with carboxyl-end truncations that remove the transmembrane-spanning regions and are fused to heterologous sequences, specifically the Fc portion of the human immunoglobuling G sequence (Ig) or the hexahistidine epitope tag (His). All binding studies were performed in an HTRF assay buffer consisting of dPBS supplemented with 0.1% (w/v) bovine serum albumin and 0.05% (v/v) Tween-20. For the PD-1-Ig/PD-L1-His binding assay, inhibitors were pre-incubated with PD-L1-His (10 nM final) for 15 m in 4 μl of assay buffer, followed by addition of PD-1-Ig (20 nM final) in 1 μl of assay buffer and further incubation for 15 m. PD-L1 fusion proteins from either human, cynomologous macaques, mouse, or other species were used. HTRF detection was achieved using europium crypate-labeled anti-Ig monoclonal antibody (1 nM final) and allophycocyanin (APC) labeled anti-His monoclonal antibody (20 nM final). Antibodies were diluted in HTRF detection buffer and 5 μl was dispensed on top of binding reaction. The reaction was allowed to equilibrate for 30 minutes and signal (665 nm/620 nm ratio) was obtained using an EnVision fluorometer. Additional binding assays were established between PD-1-Ig/PD-L2-His (20 and 5 nM, respectively), CD80-His/PD-L1-Ig (100 and 10 nM, respectively) and CD80-His/CTLA4-Ig (10 and 5 nM, respectively). Binding/competition studies between biotinylated Compound No. 71 and human PD-L1-His were performed as follows. Macrocyclic peptide inhibitors were pre-incubated with PD-L1-His (10 nM final) for 60 minutes in 4 μl of assay buffer followed by addition of biotinylated Compound No. 71 (0.5 nM final) in 1 μl of assay buffer. Binding was allowed to equilibrate for 30 minutes followed by addition of europium crypated labeled Streptavidin (2.5 pM final) and APC-labeled anti-His (20 nM final) in 5 μl of HTRF buffer. The reaction was allowed to equilibrate for 30 m and signal (665 nm/620 nm ratio) was obtained using an EnVision fluorometer.
Recombinant Proteins. Carboxyl-truncated human PD-1 (amino acids 25-167) with a C-terminal human Ig epitope tag [hPD-1 (25-167)-3S-IG] and human PD-L1 (amino acids 18-239) with a C-terminal His epitope tag [hPD-L1(19-239)-tobacco vein mottling virus protease cleavage site (TVMV)-His] were expressed in HEK293T cells and purified sequentially by recombinant Protein A affinity chromatography and size exclusion chromatography. Human PD-L2-His (Sino Biologicals), CD80-His (Sino Biologicals), CTLA4-Ig (RnD Systems) were all obtained through commercial sources.
Ranges are as follows: A=0.10-10 μM; B=0.01-0.099 μM; C=0.005-0.0099 μM.
A general note: TR-FRET usually uses a lanthanide donor and a delayed reading to cut background.
`CCCC[C@H]1C(=O)N[C@@H](CC(C)C)C(=O)N[C@H](C(=O)NCC(N)=O)CSCC(=O)N[C@@H](Cc2ccc(O)cc2)C(=O)N(C)[C@@H](C)C(=O)N[C@@H](CC(N)=O)C(=O)N2CCC[C@H]2C(=O)N[C@@H](Cc2cnc[nH]2)C(=O)N[C@@H](CCC(=O)O)C(=O)N2C[C@H](O)C[C@H]2C(=O)N[C@@H](Cc2c[nH]c3ccccc23)C(=O)N[C@@H](CCN)C(=O)N[C@@H](Cc2c[nH]c3ccccc23)C(=O)N(CCC(F)(F)F)CC(=O)N1C` [Example 3038] ({CH2CO}-Y[NMeA]NPHE[Hyp]W[Dab]W[X1][NMeNle]LCG-NH2; thioether N-14) registered an IC50 of 2.36 µM.

Still in this assay, the particulars now being: range class; PD-L1-His 10 nM, PD-1-Ig 20 nM.
With `CCCC[C@H]1C(=O)N[C@@H](CC(C)C)C(=O)N[C@H](C(=O)NCC(N)=O)CSCC(=O)N[C@@H](Cc2ccc(O)cc2)C(=O)N(C)[C@@H](C)C(=O)N[C@@H](CC(N)=O)C(=O)N2CCC[C@H]2C(=O)N[C@@H](Cc2cnc[nH]2)C(=O)N[C@@H](CCC(=O)O)C(=O)N2C[C@H](O)C[C@H]2C(=O)N[C@@H](Cc2c[nH]c3ccccc23)C(=O)N[C@@H](CCN)C(=O)N[C@@H](Cc2c[nH]c3ccccc23)C(=O)N(Cc2ccccc2)[C@@H](C)C(=O)N1C` [Example 3029] ({CH2CO}-Y[NMeA]NPHE[Hyp]W[Dab]W[NBnAla][NMeNle]LCG-NH2; thioether N-14), the IC50 lay in the range of 0.1 to 10 µM.

Turning to `CCCC[C@H]1C(=O)N[C@@H](CC(C)C)C(=O)N[C@H](C(=O)NCC(N)=O)CSCC(=O)N[C@@H](Cc2ccc(O)cc2)C(=O)N(C)[C@@H](C)C(=O)N[C@@H](CC(N)=O)C(=O)N2CCC[C@H]2C(=O)N[C@@H](Cc2cnc[nH]2)C(=O)N[C@@H](CCC(=O)O)C(=O)N2C[C@H](O)C[C@H]2C(=O)N[C@@H](Cc2c[nH]c3ccccc23)C(=O)N[C@@H](CCN)C(=O)N[C@@H](Cc2c[nH]c3ccccc23)C(=O)N(CCO)[C@@H](CCCC)C(=O)N1C` [Example 3030] ({CH2CO}-Y[NMeA]NPHE[Hyp]W[Dab]W[X3][NMeNle]LCG-NH2; thioether N-14), the half-inhibitory concentration (IC50) was in the range of 0.01 to 0.099 µM.

With `CCCC[C@H]1C(=O)N(C)[C@@H](CCCC)C(=O)N[C@@H](CC(C)C)C(=O)N[C@H](C(=O)NCC(N)=O)CSCC(=O)N[C@@H](Cc2ccc(O)cc2)C(=O)N(CCN)[C@@H](C)C(=O)N[C@@H](CC(N)=O)C(=O)N2CCC[C@H]2C(=O)N[C@@H](Cc2cnc[nH]2)C(=O)N[C@@H](CCC(=O)O)C(=O)N2C[C@H](O)C[C@H]2C(=O)N[C@@H](Cc2c[nH]c3ccccc23)C(=O)N[C@@H](CCN)C(=O)N[C@@H](Cc2c[nH]c3ccccc23)C(=O)N1C` [Example 3032] ({CH2CO}-Y[X2]NPHE[Hyp]W[Dab]W[NMeNle][NMeNle]LCG-NH2; thioether N-14), the half-inhibitory concentration (IC50) lay within 0.01 to 0.099 µM.

The compound `CCCC[C@H]1C(=O)N[C@@H](CC(C)C)C(=O)N[C@H](C(=O)NCC(N)=O)CSCC(=O)N[C@@H](Cc2ccc(O)cc2)C(=O)N(C)[C@@H](C)C(=O)N[C@@H](CC(N)=O)C(=O)N2CCC[C@H]2C(=O)N[C@@H](Cc2cnc[nH]2)C(=O)N[C@@H](CCC(=O)O)C(=O)N2C[C@H](O)C[C@H]2C(=O)N[C@@H](Cc2c[nH]c3ccccc23)C(=O)N[C@@H](CCN)C(=O)N[C@@H](Cc2c[nH]c3ccccc23)C(=O)N(CCO)[C@@H](C)C(=O)N1C` [Example 3033] ({CH2CO}-Y[NMeA]NPHE[Hyp]W[Dab]W[N(2-hydroxyethyl)Ala][NMeNle]LCG-NH2; thioether N-14) gave an IC50 of 0.1 to 10 µM.

`CCCC[C@H]1C(=O)N[C@@H](CC(C)C)C(=O)N[C@H](C(=O)NCC(N)=O)CSCC(=O)N[C@@H](Cc2ccc(O)cc2)C(=O)N(C)[C@@H](C)C(=O)N[C@@H](CC(N)=O)C(=O)N2CCC[C@H]2C(=O)N[C@@H](Cc2cnc[nH]2)C(=O)N[C@@H](CCC(=O)O)C(=O)N2C[C@H](O)C[C@H]2C(=O)N[C@@H](Cc2c[nH]c3ccccc23)C(=O)N[C@@H](CCN)C(=O)N[C@@H](Cc2c[nH]c3ccccc23)C(=O)N(CC(=O)O)CC(=O)N1C` [Example 3037] registered an IC50 of 0.1 to 10 µM.
